Measurements taken from US6737383B1, “Herbicidal oxadiazolidines” (priority 1999, dated 2004).

Columns and labels:
[1] = tested on: cocklebur; assay: Test B pre/postemergence cocklebur; type: in vivo, Xanthium strumarium; details: for Cocklebur plant response rating (0 to 10 scale): 0 is no effect
How it was run: (§1)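 Response is a visual 0-to-10 score relative to untreated plants, where 0 means no effect and 10 means complete control, taken twelve to sixteen days after application. Treatments went onto soil at planting and onto foliage of 1- to 4-leaf plants, using a surfactant-containing non-phytotoxic solvent.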

[2] = tested on: giant foxtail; assay: Test B pre/postemergence giant foxtail; type: in vivo, Setaria faberii; details: for Giant foxtail plant response rating (0 to 10 scale): 0 is no effect
How it was run: as §1

[3] = tested on: morningglory; assay: Test B pre/postemergence morningglory; type: in vivo, Ipomoea hederacea; details: for Morningglory plant response rating (0 to 10 scale): 0 is no effect
How it was run: as §1

[4] = tested on: bamyardgrass; assay: Test B flood test barnyardgrass; type: in vivo, Echinochloa crus-galli
How it was run: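 Each value is a visual injury score relative to controls, with 10 meaning complete control and 0 no effect. Evaluation took place twelve to sixteen days after the 2-leaf-stage plants were treated and kept in the greenhouse.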

[5] = tested on: winter wheat; assay: Test E winter wheat; type: in vivo, Triticum aestivum; details: Postemergence; for Wheat (winter) plant response rating: Rate 250 g/ha
How it was run: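 Postemergence: spray at 1–4 leaf stage, soil 60:40 sandy loam:potting mix; solvent + surfactant formulation; greenhouse 21–28 d; visual injury vs untreated controls.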

[6] = tested on: blackgrass; assay: Test E blackgrass; type: in vivo, Alopecurus myosuroides; details: Preemergence; for Blackgrass plant response rating (0 to 100 scale): Rate 250 g/ha
[7] = tested on: green foxtail; assay: Test E green foxtail; type: in vivo, Setaria viridis; details: Preemergence; for Green foxtail plant response rating (0 to 100 scale): Rate 250 g/ha
[8] = tested on: Italian ryegrass; assay: Test E Italian ryegrass; type: in vivo, Lolium multiflorum; details: Preemergence; for I. Ryegrass plant response rating (0 to 100 scale): Rate 250 g/ha
[9] = tested on: winter wheat; assay: Test E winter wheat; type: in vivo, Triticum aestivum; details: Preemergence; for Wheat (winter) plant response rating (0 to 100 scale): Rate 250 g/ha
[10] = tested on: wild oat; assay: Test E wild oat; type: in vivo, Avena fatua; details: Preemergence; for Wild oat plant response rating (0 to 100 scale): Rate 250 g/ha
[11] = tested on: winter barley; assay: Test E winter barley; type: in vivo, Hordeum vulgare; details: Preemergence; for Barley (winter) plant response rating (0 to 100 scale): Rate 250 g/ha
[12] = Postemergence, Rate 125 g/ha, scale of 0 to 10 where 0 is no effect and 10 is complete control
[13] = Preemergence, Rate 125 g/ha, 10 is complete control
[14] = Preemergence, Rate 250 g/ha, scale 0 to 10, 0 is no effect, 10 is complete control
[15] = Preemergence, Rate 500 g/ha, scale 0 to 10 (0 no effect, 10 complete control)
[16] = Rate 62 g/ha, Postemergence, scale of 0 to 10 where 0 is no effect and 10 is complete control
[17] = Rate 250 g/ha, Postemergence, scale 0 to 10, 0 is no effect, 10 is complete control
[18] = Rate 500 g/ha, Postemergence, scale 0 to 10
[19] = Preemergence, Rate 62 g/ha, scale 0 to 10 (0 no effect, 10 complete control)
[20] = 0 to 100 scale where 0 is no effect and 100 is complete control
[21] = Rate 62 g/ha, 0 to 100 scale, 0 no effect, 100 complete control
[22] = Rate 125 g/ha, 0 to 100 scale (0 no effect, 100 complete control)
[23] = Preemergence, Rate 62 g/ha, scale of 0 to 10 where 0 is no effect and 10 is complete control
[24] = Preemergence, Rate 500 g/ha, scale of 0 to 10 where 0 is no effect and 10 is complete control
[25] = Rate 125 g/ha, Postemergence, scale 0 to 10
[26] = Rate 62 g/ha, headed Pre-emergence (flood test species), scale 0 to 10 (0 no effect, 10 complete control)
[27] = Rate 125 g/ha, Pre-emergence, flood test species, scale 0 to 10 where 0 is no effect and 10 is complete control
[28] = Rate 250 g/ha, Pre-emergence, flood-test species, scale 0 to 10, 0 is no effect, 10 is complete control
[29] = Rate 1000 g/ha, 0 to 100 scale where 0 is no effect and 100 is complete control
[30] = Preemergence, Rate 250 g/ha, scale of 0 to 10 where 0 is no effect and 10 is complete control
[31] = Rate 250 g/ha, Postemergence, scale of 0 to 10 where 0 is no effect and 10 is complete control
[32] = Rate 500 g/ha, Postemergence, scale 0 to 10, 0 no effect, 10 complete control
[33] = Rate 125 g/ha, Postemergence, scale of 0 to 10 where 0 is no effect and 10 is complete control
[34] = Rate 125 g/ha, Preemergence, scale of 0 to 10 where 0 is no effect and 10 is complete control
[35] = Rate 500 g/ha, 0 to 100 scale where 0 is no effect and 100 is complete control
[36] = Rate 1000 g/ha, 0 to 100 scale, 0 no effect, 100 complete control

CC(C)N(C(=O)n1oc(=O)n(CCCl)c1=O)c1ccc(F)cc1 [Compound 148]
Cocklebur plant response rating [1, 12]: 0
Cocklebur plant response rating (0 to 10 scale) [1, 13]: 0
Cocklebur plant response rating [1, 14]: 0
Cocklebur plant response rating [1, 15]: 0
Cocklebur plant response rating [1, 16]: 0
Plant response rating, Cocklebur [1, 17]: 0
Cocklebur plant response rating [1, 18]: 3
Giant foxtail plant response rating [2, 12]: 8
Giant foxtail plant response rating [2, 19]: 7
Giant foxtail plant response rating (0 to 10 scale) [2, 13]: 9
Giant foxtail plant response rating [2, 14]: 9
Giant foxtail plant response rating [2, 15]: 10
Giant foxtail plant response rating [2, 16]: 5
Plant response rating, Giant foxtail [2, 17]: 8
Giant foxtail plant response rating [2, 18]: 9
Morningglory plant response rating [3, 12]: 3
Morningglory plant response rating [3, 19]: 0
Morningglory plant response rating (0 to 10 scale) [3, 13]: 0
Morningglory plant response rating [3, 14]: 0
Morningglory plant response rating [3, 15]: 1
Morningglory plant response rating [3, 16]: 3
Plant response rating, Morningglory [3, 17]: 3
Morningglory plant response rating [3, 18]: 5
Barnyardgrass plant response rating ([4]; Postemergence (flood test species), Rate 125 g/ha, scale of 0 to 10 where 0 is no effect and 10 is complete control): 0
Barnyardgrass plant response rating ([4]; Rate 62 g/ha, Postemergence section, flood test species, scale of 0 to 10 where 0 is no effect and 10 is complete control): 0
Plant response rating, Barnyardgrass ([4]; Rate 250 g/ha, Postemergence (flood test), scale 0 to 10, 0 is no effect, 10 is complete control): 0
Barnyardgrass plant response rating ([4]; Rate 500 g/ha, listed under Postemergence (flood test species), scale 0 to 10, 0 no effect, 10 complete control): 4
Plant response rating, Wheat (winter) ([5]; Rate 62 g/ha, 0 to 100 scale): 0
Plant response rating, Wheat (winter) ([5]; Rate 125 g/ha, 0 to 100 scale): 10
Wheat (winter) plant response rating [5, 20]: 80
Plant response rating, Blackgrass [6, 21]: 20
Plant response rating, Blackgrass [6, 22]: 50
Blackgrass plant response rating (0 to 100 scale) [6]: 50
Plant response rating, Green foxtail [7, 21]: 20
Plant response rating, Green foxtail [7, 22]: 30
Green foxtail plant response rating (0 to 100 scale) [7]: 55
Plant response rating, I. Ryegrass [8, 21]: 20
Plant response rating, I. Ryegrass [8, 22]: 20
I. Ryegrass plant response rating (0 to 100 scale) [8]: 30
Plant response rating, Wheat (winter) [9, 21]: 0
Plant response rating, Wheat (winter) [9, 22]: 0
Wheat (winter) plant response rating (0 to 100 scale) [9]: 0
Plant response rating, Wild oat [10, 21]: 10
Plant response rating, Wild oat [10, 22]: 15
Wild oat plant response rating (0 to 100 scale) [10]: 40
Plant response rating, Barley (winter) [11, 21]: 10
Plant response rating, Barley (winter) [11, 22]: 10
Barley (winter) plant response rating (0 to 100 scale) [11]: 10

Cc1ccccc1-n1c(=O)on(C(=O)N(c2ccccc2F)C(C)C)c1=O [Compound 204]
Cocklebur plant response rating [1, 23]: 0
Cocklebur plant response rating (0 to 10 scale) [1, 13]: 0
Cocklebur plant response rating [1, 14]: 0
Plant response rating, Cocklebur [1, 24]: 0
Cocklebur plant response rating [1, 16]: 0
Cocklebur plant response rating [1, 25]: 0
Plant response rating (0 to 10; 0 is no effect, 10 is complete control), Cocklebur ([1]; Rate 250 g/ha, Postemergence): 1
Cocklebur plant response rating [1, 18]: 1
Giant foxtail plant response rating [2, 23]: 7
Giant foxtail plant response rating (0 to 10 scale) [2, 13]: 9
Giant foxtail plant response rating [2, 14]: 10
Plant response rating, Giant foxtail [2, 24]: 10
Giant foxtail plant response rating [2, 16]: 0
Giant foxtail plant response rating [2, 25]: 0
Plant response rating (0 to 10; 0 is no effect, 10 is complete control), Giant foxtail ([2]; Rate 250 g/ha, Postemergence): 0
Giant foxtail plant response rating [2, 18]: 3
Morningglory plant response rating [3, 23]: 0
Morningglory plant response rating (0 to 10 scale) [3, 13]: 0
Morningglory plant response rating [3, 14]: 0
Plant response rating, Morningglory [3, 24]: 0
Morningglory plant response rating [3, 16]: 3
Morningglory plant response rating [3, 25]: 3
Plant response rating (0 to 10; 0 is no effect, 10 is complete control), Morningglory ([3]; Rate 250 g/ha, Postemergence): 3
Morningglory plant response rating [3, 18]: 8
Barnyardgrass plant response rating [4, 26]: 0
Barnyardgrass plant response rating [4, 27]: 0
Barnyardgrass plant response rating [4, 28]: 0
Plant response rating, Barnyardgrass ([4]; Rate 500 g/ha, headed Pre-emergence (flood test species), scale 0 to 10 (0 no effect, 10 complete control)): 0
Plant response rating, Wheat (winter) ([5]; Rate 1000 g/ha, 0 to 100 scale, 0 is no effect and 100 is complete control): 30
Blackgrass plant response rating (0 to 100 scale) [6]: 55
Plant response rating, Blackgrass [6, 29]: 95
Green foxtail plant response rating (0 to 100 scale) [7]: 75
Plant response rating, Green foxtail [7, 29]: 100
I. Ryegrass plant response rating (0 to 100 scale) [8]: 50
Plant response rating, I. Ryegrass [8, 29]: 65
Wheat (winter) plant response rating (0 to 100 scale) [9]: 30
Plant response rating, Wheat (winter) [9, 29]: 50
Wild oat plant response rating (0 to 100 scale) [10]: 50
Plant response rating, Wild oat [10, 29]: 50
Barley (winter) plant response rating (0 to 100 scale) [11]: 50
Plant response rating, Barley (winter) [11, 29]: 30

Cc1ccccc1-n1c(=O)on(C(=O)N(c2cccc(F)c2)C(C)C)c1=O [Compound 269]
Cocklebur plant response rating [1, 23]: 0
Cocklebur plant response rating [1, 30]: 0
Plant response rating, Cocklebur [1, 24]: 0
Cocklebur plant response rating [1, 16]: 0
Plant response rating, Cocklebur [1, 31]: 1
Cocklebur plant response rating [1, 32]: 2
Giant foxtail plant response rating [2, 23]: 3
Giant foxtail plant response rating [2, 30]: 10
Giant foxtail plant response rating [2, 33]: 0
Giant foxtail plant response rating [2, 34]: 6
Plant response rating, Giant foxtail [2, 31]: 0
Giant foxtail plant response rating [2, 32]: 2
Morningglory plant response rating [3, 23]: 0
Morningglory plant response rating [3, 30]: 0
Plant response rating, Morningglory [3, 24]: 0
Morningglory plant response rating [3, 33]: 3
Morningglory plant response rating [3, 34]: 0
Plant response rating, Morningglory [3, 31]: 5
Morningglory plant response rating [3, 32]: 7
Barnyardgrass plant response rating [4, 26]: 0
Barnyardgrass plant response rating [4, 27]: 0
Barnyardgrass plant response rating [4, 28]: 0
Barnyardgrass plant response rating ([4]; Rate 500 g/ha, Pre-emergence, flood test species, scale 0 to 10 (0 no effect, 10 complete control)): 0
Plant response rating, Wheat (winter) [5, 29]: 55
Wheat (winter) plant response rating [5, 20]: 50
Plant response rating, Wheat (winter) ([5]; Rate 500 g/ha, 0 to 100 scale, 0 is no effect, 100 is complete control): 40
Blackgrass plant response rating (0 to 100 scale) [6]: 40
Plant response rating, Blackgrass [6, 35]: 30
Plant response rating, Blackgrass [6, 36]: 40
Green foxtail plant response rating (0 to 100 scale) [7]: 60
Plant response rating, Green foxtail [7, 35]: 70
Plant response rating, Green foxtail [7, 36]: 100
I. Ryegrass plant response rating (0 to 100 scale) [8]: 50
Plant response rating, I. Ryegrass [8, 35]: 60
Plant response rating, I. Ryegrass [8, 36]: 70
Wheat (winter) plant response rating (0 to 100 scale) [9]: 60
Plant response rating, Wheat (winter) [9, 35]: 40
Plant response rating, Wheat (winter) [9, 36]: 50
Wild oat plant response rating (0 to 100 scale) [10]: 70
Plant response rating, Wild oat [10, 35]: 70
Plant response rating, Wild oat [10, 36]: 70
Barley (winter) plant response rating (0 to 100 scale) [11]: 30
Plant response rating, Barley (winter) [11, 35]: 50
Plant response rating, Barley (winter) [11, 36]: 60
